The pKi is the negative decadic logarithm of the Ki, by convention in mol/L. The low end stands for a large Ki, the high end for a small Ki.

SMILES strings stand for the structures. pKi: −log10 of the molar value. Counter-ions that a name gives are not always drawn.

For the assay, the target named is T1, Activated human C1s (Homo sapiens, UniProt P09871).
T1 construct: purchased Calbiochem (La Jolla, Calif.)
T1 sequence (P09871 438-688 limits assumed): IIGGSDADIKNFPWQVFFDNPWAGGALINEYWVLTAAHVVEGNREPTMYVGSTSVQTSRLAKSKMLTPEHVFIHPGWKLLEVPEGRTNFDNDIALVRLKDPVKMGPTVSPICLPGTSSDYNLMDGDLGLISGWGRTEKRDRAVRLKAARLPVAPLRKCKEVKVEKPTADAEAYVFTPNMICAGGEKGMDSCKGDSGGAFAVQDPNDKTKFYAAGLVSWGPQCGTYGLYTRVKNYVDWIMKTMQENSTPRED
T1 sequence (P09871 16-437 partner limits assumed): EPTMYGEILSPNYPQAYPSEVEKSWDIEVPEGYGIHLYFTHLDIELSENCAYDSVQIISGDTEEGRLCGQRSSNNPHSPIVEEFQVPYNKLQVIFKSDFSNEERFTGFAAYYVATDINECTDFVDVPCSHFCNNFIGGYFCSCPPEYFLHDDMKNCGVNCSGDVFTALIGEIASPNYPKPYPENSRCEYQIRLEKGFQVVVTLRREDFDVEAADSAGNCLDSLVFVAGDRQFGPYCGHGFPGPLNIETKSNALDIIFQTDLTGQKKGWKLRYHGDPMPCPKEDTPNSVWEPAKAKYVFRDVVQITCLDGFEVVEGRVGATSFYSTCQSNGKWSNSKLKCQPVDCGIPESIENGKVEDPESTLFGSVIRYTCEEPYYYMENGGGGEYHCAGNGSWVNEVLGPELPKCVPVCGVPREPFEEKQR
As to the kind of experiment: In vitro inhibition of C1s (Ki determination, C1s-catalyzed hydrolysis of Z-Gly-Arg-S-Bzl, DTNB readout). Particulars: substrate Z-Gly-Arg-S-Bzl 45 μM, DTNB 200 μM, C1s 2.3 nM, pH 7.5, 37° C., absorbance at 405 nm. The class given is biochemical.
Compound `CSc1sc(C(=N)N)cc1S(=O)(=O)c1cccc(-c2ccc(N(C)C(=N)N)cc2C)c1` [Example 262, 4-[2′-Methyl-4′-(N-methyl-guanidino)-biphenyl-3-sulfonyl]-5-methylsulfanyl-thiophene-2-carboxamidine bis-trifluoroacetate] showed a negative-log Ki (pKi) of 7.64 to 8.22.

With `CSc1sc(C(=N)N)cc1S(=O)(=O)c1cccc(-c2ccc(NC(=N)NCCCCCC(=O)O)cc2C)c1` [Example 263, 6-{N′-[3′-(5-Carbamimidoyl-2-methylsulfanyl-thiophene-3-sulfonyl)-2-methyl-biphenyl-4-yl]-guanidino}-hexanoic acid], the pKi was 7.64 to 8.22.

With `CSc1sc(C(=N)N)cc1S(=O)(=O)c1cc(Br)c2c(c1)ncn2Cc1cc(F)ccc1F` [Example 275, 4-[7-Bromo-1-(2,5-difluoro-benzyl)-1H-benzoimidazole-5-sulfonyl]-5-methylsulfanyl-thiophene-2-carboxamidine trifluoroacetate], the pKi was 7.64 to 8.22.

The compound `CSc1sc(C(=N)N)cc1S(=O)(=O)c1cccc(-c2ccc(NC(N)=NCCCc3ccccc3)cc2C)c1` [Example 280, 4-{2′-Methyl-4′-[N′-(3-phenyl-propyl)-guanidino]-biphenyl-3-sulfonyl}-5-methylsulfanyl-thiophene-2-carboxamidine bistrifluoroacetate] had a pKi of 7.64 to 8.22.

`CSc1sc(C(=N)N)cc1S(=O)(=O)c1cccc(-c2ccc(NC(=N)NCCC(C)C)cc2C)c1` [Example 282, 4-{2′-Methyl-4′-[N′-(3-methyl-butyl)-guanidino]-biphenyl-3-sulfonyl}-5-methylsulfanyl-thiophene-2-carboxamidine bistrifluoroacetate] had a pKi of 7.64 to 8.22.

The compound `CSc1sc(C(=N)N)cc1S(=O)(=O)c1cccc(-c2c(C)cc(NC(=O)NCCCS(C)(=O)=O)cc2NC(=O)NCCCS(C)(=O)=O)c1` [Example 294, 4-{4′,6′-Bis-[3-(3-methanesulfonyl-propyl)-uredo]-2′-methyl-biphenyl-3-sulfonyl}-5-methylsulfanyl-thiophene-2-carboxamidine trifluoroacetate] showed a negative logarithm of the Ki (pKi) of 7.64 to 8.22.

Regarding `CSc1sc(C(=N)N)cc1S(=O)(=O)c1cccc(-c2c(C)cc(NC(=N)N)cc2NC(=O)CCCCCCCCCCC(=O)O)c1` [Example 295, 11-[3′-(5-Carbamimidoyl-2-methylsulfanyl-thiophene-3-sulfonyl)-4-guanidino-6-methyl-biphenyl-2-ylcarbamoyl]-undecanoic acid bis-trifluoroacetate], the pKi is 7.64 to 8.22.

As for `CSc1sc(C(=N)N)cc1S(=O)(=O)c1cccc(-c2ccc(NC(=O)NCCCS(C)(=O)=O)cc2C)c1` [Example 296, 4-{4′-[3-(3-Methanesulfonyl-propyl)-ureido]-2′-methyl-biphenyl-3-sulfonyl}-5-methylsulfanyl-thiophene-2-carboxamidine trifluoroacetate], the pKi is 7.64 to 8.22.

In the case of `CSc1sc(C(=N)N)cc1S(=O)(=O)c1cccc(-c2ccc(NC(=N)N)cc2C)c1` [Example 314, 4-(4′-Guanidino-2′-methyl-biphenyl-3-sulfonyl)-5-methylsulfanyl-thiophene-2-carboxamidine bis-trifluoroacetate], the negative logarithm of the Ki (pKi) was 7.64 to 8.22.

For `CO/N=C(\N)Nc1ccc(-c2cccc(S(=O)(=O)c3cc(C(=N)N)sc3SC)c2)c(C)c1` [Example 315, 4-[2′-Methyl-4′-(N′-methoxyl-guanidino)-biphenyl-3-sulfonyl]-5-methylsulfanyl-thiophene-2-carboxamidine bis-trifluoroacetate], the pKi was 7.64 to 8.22.
